From patent US20190070165A1, “N-HYDROXYISOQUINOLINEDIONE INHIBITORS OF HBV REPLICATION” (Saint Louis University, priority 2016, published 2019) come the findings set out here.

In one assay the test system is HSV-1. Description: HSV-1 replication inhibition assay in Vero cells. It counts as cell-based, herpes simplex virus 1. Conditions: Human alphaherpesvirus 1, 24 h; 5 μM, Vero cells; read-out: HSV-1 suppression (log10 at 5 μM), class symbol.
In a further assay the target is HBV RNaseH (Hepatitis B virus genotype D subtype ayw, UniProt P03156). Conditions: Table 3, compounds at 100, 60 and 20 μM; compounds 1-91 and 138-140 previously reported (Cai et al., 2014).
Sequence of HBV RNaseH (P03156 671-832): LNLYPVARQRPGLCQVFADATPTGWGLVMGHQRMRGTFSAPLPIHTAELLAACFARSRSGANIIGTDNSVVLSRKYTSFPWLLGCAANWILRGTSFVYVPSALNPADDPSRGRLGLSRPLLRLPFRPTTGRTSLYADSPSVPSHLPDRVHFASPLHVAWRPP

Experimental for HBV RNaseH: RNaseH expression and purification. […] The enriched extracts were dialyzed into 50 mM HEPES pH 7.3, 300 mM NaCl, 20% glycerol, and 5 mM DTT and stored in liquid nitrogen.
Oligonucleotide-directed RNA cleavage assay. […] This mixture was incubated with test compounds in 50 mM Tris pH 8.0, 190 mM NaCl, 5 mM MgCl2, 3.5 mM DTT, 0.05% NP40, 6% glycerol, and 1% DMSO at 42° C. for 90 minutes. Cleavage products were resolved by denaturing polyacrylamide gel electrophoresis, detected by autoradiography, and quantified using ImageJ. Non-specific background values were determined from the incorrect oligonucleotide negative control lane and subtracted from all experimental values. IC50 values were then calculated with GraphPad Prism using three-parameter log(inhibitor) vs. response non-linear curve fitting with the curve minimum set to zero to reflect background subtraction.
The HBV RNaseH inhibition activity of the 16 previously untested compounds was examined using an oligonucleotide-directed cleavage assay. Compounds were incubated with the HBV RNaseH, a ^32P-labeled RNA substrate plus a complementary DNA oligonucleotide and compounds at 100, 60, and 20 μM and the amount of the RNA cleavage products was measured following resolution on an acrylamide gel.
Briefly, a ^32P-labeled RNA was combined with a DNA oligonucleotide and the RNA:DNA substrate was incubated in the presence of the RNaseH and test compounds in 50 mM tris pH 8.0, 190 mM NaCl, 5 mM MgCl2, 3.5 mM DTT, 0.05% NP40, 6% glycerol, and 1% DMSO at 42° C. for 90 minutes. The products were resolved by gel electrophoresis and detected by audioradioagraphy.

On to `O=C1c2ccccc2C(=O)N1O` [Compound 138], for which, in the assay on HSV-1, the log reduction at 5 µM was below 1. Moreover, the “Inhibition of HBV RNaseH, Oligonucleotide directed cleavage assay” value at HBV RNaseH is listed as “− (No inhibition detected at 100 μM)”.
